The text below walks through data of patent US9206219B2, “17-hydroxy-17-pentafluorethyl-estra-4,9(10)-dien-11-aryl derivatives, methods for the production thereof and the use thereof for treating diseases” (Bayer Intellectual Property GmbH, priority 2009, dated 2015).

Series [1] can be described thus: Metabolic stability in human liver microsomes. In kind it is in vitro ADME. The conditions noted are these: calculated from liver microsome clearance. The method, then:
(§1) Determination of Metabolic Stability in Human and Rat Liver Microsomes
Isolated human liver microsomes (HLM) were used to assess the metabolic stability of compounds of general formula I.
(§2) The incubations were conducted with 2.4 ml of HLM solution (protein content 0.5 mg/ml), 30 μl of the test compound (final concentration 1 μM) and 0.6 ml of the cofactor mixture (=NADPH-generating system composed of 3 IU glucose-6-phosphate dehydrogenase, 14.6 mg glucose-6-phosphate, 1.2 mg NADP) at 37° C. in 100 mM phosphate buffer at pH 7.4. Samples were taken at 6 time points (2-60 min) and precipitated with an equal volume of methanol, and the recovery of the test substances used in the supernatant was determined by LC-MS/MS analysis. The half-life of substance degradation determined therefrom was used to calculate what is called the intrinsic clearance of the substance in the liver microsome preparation. […] In addition, under the assumptions that (i) absorption of the test substance is 100%, and (ii) the first pass is completely reflected by liver microsome metabolism, a maximum oral bioavailability (Fmax) was calculated.

The target of series [2] is T1, human progesterone receptor A (Homo sapiens, UniProt P06401).
T1 construct: expressed in transfected cells; host or cells: SK-N-MC human neuroblastoma cells, stably transfected with pRChPR-A-neo and pMMTV-LUC
T1 sequence (P06401 1-769 isoform P06401-2): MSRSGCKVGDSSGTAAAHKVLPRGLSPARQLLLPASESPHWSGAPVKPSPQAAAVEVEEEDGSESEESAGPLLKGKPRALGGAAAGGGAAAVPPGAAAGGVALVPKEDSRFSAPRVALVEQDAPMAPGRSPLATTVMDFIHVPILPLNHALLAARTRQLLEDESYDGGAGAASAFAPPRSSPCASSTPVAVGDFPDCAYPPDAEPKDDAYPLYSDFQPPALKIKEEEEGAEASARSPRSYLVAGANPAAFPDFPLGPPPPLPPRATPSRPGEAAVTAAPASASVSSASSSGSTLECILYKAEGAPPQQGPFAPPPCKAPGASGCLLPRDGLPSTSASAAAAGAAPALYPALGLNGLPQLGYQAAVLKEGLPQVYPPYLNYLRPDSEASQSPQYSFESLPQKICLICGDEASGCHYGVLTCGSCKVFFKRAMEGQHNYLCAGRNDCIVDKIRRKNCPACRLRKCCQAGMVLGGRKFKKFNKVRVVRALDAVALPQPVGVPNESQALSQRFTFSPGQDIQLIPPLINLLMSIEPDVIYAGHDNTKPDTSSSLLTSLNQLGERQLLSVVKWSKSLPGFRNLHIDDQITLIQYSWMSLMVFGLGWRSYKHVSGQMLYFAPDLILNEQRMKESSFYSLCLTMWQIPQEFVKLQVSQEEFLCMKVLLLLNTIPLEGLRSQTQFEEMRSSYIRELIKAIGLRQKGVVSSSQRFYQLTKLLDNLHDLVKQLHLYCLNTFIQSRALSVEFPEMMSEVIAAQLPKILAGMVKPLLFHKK
The series can be described thus: Progesterone receptor-antagonistic action in stably transfected SK-N-MC cells, MMTV-LUC reporter (PR-A). The note with it: antagonistic potency vs 0.1 nmol/l promegestone, 24 hours. In kind it is cell-based. The method, boiled down:
(§3)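 Stably transfected SK-N-MC cells express human PR-B or PR-A plus MMTV-LUC. For antagonism they were co-treated with 0.1 nmol/l promegestone and compound (0.01 nmol/l upward) for 24 hours. Luciferase in lysates was read as RLU and reported as % efficacy and IC50.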

The target of series [3] is T2, human progesterone receptor B (Homo sapiens, UniProt P06401).
T2 construct: expressed in transfected cells; host or cells: SK-N-MC human neuroblastoma cells, stably transfected with pRChPR-B-neo and pMMTV-LUC
T2 sequence (P06401 1-933): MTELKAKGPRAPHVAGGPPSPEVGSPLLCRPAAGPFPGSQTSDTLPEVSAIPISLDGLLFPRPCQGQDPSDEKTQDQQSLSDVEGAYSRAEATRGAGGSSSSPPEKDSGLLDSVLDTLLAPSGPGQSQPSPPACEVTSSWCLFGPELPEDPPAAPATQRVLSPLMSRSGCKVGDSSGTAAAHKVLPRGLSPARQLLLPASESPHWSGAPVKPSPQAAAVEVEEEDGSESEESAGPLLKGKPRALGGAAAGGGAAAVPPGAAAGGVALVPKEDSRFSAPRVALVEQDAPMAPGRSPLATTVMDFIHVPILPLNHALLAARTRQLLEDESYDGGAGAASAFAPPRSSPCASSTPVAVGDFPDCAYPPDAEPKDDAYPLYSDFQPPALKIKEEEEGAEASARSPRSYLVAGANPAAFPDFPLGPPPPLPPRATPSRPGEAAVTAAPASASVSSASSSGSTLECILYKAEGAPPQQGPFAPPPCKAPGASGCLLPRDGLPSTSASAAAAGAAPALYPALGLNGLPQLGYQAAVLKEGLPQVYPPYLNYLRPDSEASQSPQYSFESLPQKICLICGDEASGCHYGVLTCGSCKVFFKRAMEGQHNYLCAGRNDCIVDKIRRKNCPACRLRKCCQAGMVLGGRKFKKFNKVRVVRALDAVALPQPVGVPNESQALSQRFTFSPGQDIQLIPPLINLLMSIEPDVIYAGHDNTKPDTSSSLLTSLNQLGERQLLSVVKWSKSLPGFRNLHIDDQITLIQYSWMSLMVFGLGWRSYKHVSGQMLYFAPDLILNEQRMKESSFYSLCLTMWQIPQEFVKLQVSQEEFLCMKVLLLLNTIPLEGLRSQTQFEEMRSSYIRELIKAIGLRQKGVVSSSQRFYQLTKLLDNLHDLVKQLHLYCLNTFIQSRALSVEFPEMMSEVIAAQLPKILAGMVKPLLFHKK
The series can be described thus: Progesterone receptor-antagonistic action in stably transfected SK-N-MC cells, MMTV-LUC reporter (PR-B). In kind it is cell-based. The note with it: antagonistic potency vs 0.1 nmol/l promegestone, 24 hours. The method, boiled down:
as §3

Series [4] in a line: Metabolic stability in rat liver microsomes. Format: in vitro ADME. The conditions noted are these: calculated from liver microsome clearance. As for the experimental part: as §1, §2

Turning to `CC1(C)OCC(C)(c2ccc([C@H]3C[C@@]4(C)[C@@H](CC[C@@]4(O)C(F)(F)C(F)(F)F)[C@@H]4CCC5=CC(=O)CCC5=C43)cc2)CO1` [Example 15B, (8S,11R,13S,14S,17S)-17-hydroxy-13-methyl-17-pentafluoroethyl-11-[4-(2,2,5-trimethyl-[1,3]dioxan-5-yl)phenyl]-1,2,6,7,8,11,12,13,14,15,16,17-dodecahydrocyclopenta[a]phenanthren-3-one], the results for the “Predicted Fmax (maximum oral bioavailability)” value (from here on “Predicted Fmax”) in series [1] and in series [4] were 5.0% and 4.7%, respectively. Further, the IC50 in series [2] and in series [3] was 0.01 nM in each case.

Regarding `CC(C)(O)c1ccc([C@H]2C[C@@]3(C)[C@@H](CC[C@@]3(O)C(F)(F)C(F)(F)F)[C@@H]3CCC4=CC(=O)CCC4=C32)cc1` [Example 5, (8S,11R,13S,14S,17S)-17-hydroxy-11-[4-(1-hydroxy-1-methylethyl)phenyl]-13-methyl-17-pentafluoroethyl-1,2,6,7,8,11,12,13,14,15,16,17-dodecahydrocyclopenta[a]phenanthren-3-one], the “Predicted Fmax” value in series [1] was 44%; in series [4], 52%. Moreover, the IC50 in series [2] came to 0.016 nM; in series [3], 0.09 nM.

For the compound `C[C@]12C[C@H](c3ccc(-c4ccc(-c5nnn[nH]5)cc4)cc3)C3=C4CCC(=O)C=C4CC[C@H]3[C@@H]1CC[C@@]2(O)C(F)(F)C(F)(F)F` [Example 29, (8S,11R,13S,14S,17S)-17-hydroxy-13-methyl-17-pentafluoroethyl-11-[4′-(1H-tetrazol-5-yl)biphenyl-4-yl]-1,2,6,7,8,11,12,13,14,15,16,17-dodecahydrocyclopenta[a]phenanthren-3-one], the “Predicted Fmax” value in series [1] was 69%; in series [4] it was 93%. For the same compound, the IC50 in series [2] is 0.3 nM; in series [3], 0.9 nM.

For the compound `C[C@]12C[C@H](c3ccc(C#N)cc3)C3=C4CCC(=O)C=C4CC[C@H]3[C@@H]1CC[C@@]2(O)C(F)(F)C(F)(F)F` [Example 30, 4-((8S,11R,13S,14S,17S)-17-hydroxy-13-methyl-3-oxo-17-pentafluoroethyl-2,3,6,7,8,11,12,13,14,15,16,17-dodecahydro-1H-cyclopenta[a]phenanthren-11-yl)benzonitrile], the “Predicted Fmax” value is given as 63% in series [1] and 79% in series [4]. In addition, the IC50 in series [2] was 0.02 nM; in series [3] it was 0.08 nM.

As to `CC1(c2ccc([C@H]3C[C@@]4(C)[C@@H](CC[C@@]4(O)C(F)(F)C(F)(F)F)[C@@H]4CCC5=CC(=O)CCC5=C43)cc2)CC1` [Example 4, (8S,11R,13S,14S,17S)-17-hydroxy-13-methyl-11-[4-(1-methylcyclopropyl)phenyl]-17-pentafluoroethyl-1,2,6,7,8,11,12,13,14,15,16,17-dodecahydrocyclopenta[a]phenanthren-3-one], the “Predicted Fmax” value in series [1] is given as 37%; in series [4] it was 52%. Also, the half-inhibitory concentration (IC50) in series [2] and in series [3] was 0.012 nM each time.

As to `CC(CO)(CO)c1ccc([C@H]2C[C@@]3(C)[C@@H](CC[C@@]3(O)C(F)(F)C(F)(F)F)[C@@H]3CCC4=CC(=O)CCC4=C32)cc1` [Example 15A, (8S,11R,13S,14S,17S)-17-hydroxy-11-[4-(2-hydroxy-1-hydroxymethyl-1-methylethyl)phenyl]-13-methyl-17-pentafluoroethyl-1,2,6,7,8,11,12,13,14,15,16,17-dodecahydrocyclopenta[a]phenanthren-3-one], the “Predicted Fmax” value in series [1] is on record as 8.5%; in series [4] it was 59%. Moreover, the IC50 stood at 0.09 nM in series [2] and 0.1 nM in series [3].

Broadly, the IC50 is the concentration at which inhibition is half-maximal. A low value points to greater potency in that assay.
